In the supplement of paper PMC11061612:

What was measured:
CAL-72 (Osteosarcoma) = experiment: Bliss excess, mean over the matrix (fraction); higher = more synergy
Outline: (§1)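 Cell lines in DMEM/F12 or RPMI with 10% FBS were plated in 1536-well plates, held 24 hours at 37°C, 5% CO2, then given two-drug dose matrices for 72 hours (DMSO typically 0.2%). Viability was read by CellTiter-Glo 2.0 luminescence and scaled as inhibition from 0 (vehicle wells) to 1 (blank wells). Combination Emax is the second-highest inhibition in the matrix; Bliss excess is observed combination effect minus expected EA + EB − EA·EB, EA and EB being single-agent effects.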

EW-11 (Ewing's Sarcoma) = experiment: as above
Outline: as §1

GAMG (Glioblastoma) = experiment: as above
Outline: as §1

[1] = tested on: LNZTA3WT4 (Low Grade Glioma); experiment: as above
Outline: as §1

[2] = tested on: LS-123 (Colorectal Carcinoma); experiment: as above
Outline: as §1

[3] = tested on: SAS (Oral Cavity Carcinoma); experiment: as above
Outline: as §1

[4] = tested on: SNU-16 (Gastric Carcinoma); experiment: as above
Outline: as §1

[5] = tested on: TGBC1TKB (Biliary Tract Carcinoma); experiment: as above
Outline: as §1

A673 (Ewing's Sarcoma) = experiment: combination Emax (second highest fraction inhibited in the dose matrix, 72 h); higher = more inhibition; extreme values may be limits of the assay
Outline: as §1

[6] = tested on: OVCAR-5 (Ovarian Carcinoma); experiment: as above
Outline: as §1

[7] = tested on: SAS (Oral Cavity Carcinoma); experiment: as above
Outline: as §1

BE2-M17 (Neuroblastoma) = experiment: Bliss excess, mean over the matrix (fraction); higher = more synergy
Outline: as §1

[8] = tested on: HeLa (Cervical Carcinoma); experiment: as above
Outline: as §1
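Wherever Bliss excess, mean over the matrix is given: after 72 h of two-drug dosing.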

SMILES	Bliss excess (CAL-72 (Osteosarcoma))	Bliss excess (EW-11 (Ewing's Sarcoma))	Bliss excess (GAMG (Glioblastoma))	Bliss excess [1]	Bliss excess [2]	Bliss excess [3]	Bliss excess [4]	Bliss excess [5]	combination Emax (A673 (Ewing's Sarcoma))	combination Emax [6]	combination Emax [7]	Bliss excess (BE2-M17 (Neuroblastoma))	Bliss excess [8]
O=C(c1cc(Cc2n[nH]c(=O)c3ccccc23)ccc1F)N1CCN(C(=O)C2CC2)CC1 [Olaparib] + CC1(C)CCC(CN2CCN(c3ccc(C(=O)NS(=O)(=O)c4ccc(NCC5CCOCC5)c([N+](=O)[O-])c4)c(Oc4cnc5[nH]ccc5c4)c3)CC2)=C(c2ccc(Cl)cc2)C1 [Venetoclax] (first compound max 10 µM, 7x7, partner max 1 µM)	-0.0215	0.0371	-0.0303	-0.0739	-0.0413	-0.0168	0.0258	-0.0666	0.501	0.0569	0.176		
CN(CCO)CC[C@H](CSc1ccccc1)Nc1ccc(S(=O)(=O)NC(=O)c2ccc(N3CCC([C@@H](O)c4ccccc4-c4ccc(Cl)cc4)CC3)cc2)cc1S(=O)(=O)C(F)(F)F [AZD4320] + CS(=O)(=O)CCNCc1ccc(-c2ccc3ncnc(Nc4ccc(OCc5cccc(F)c5)c(Cl)c4)c3c2)o1 [Lapatinib] (first compound max 1 µM, 7x7, partner max 10 µM)	-0.0174	0.0342	0.1	0.0677		0.0214	0.0399	0.0019	0.973	0.896	0.525		
C[C@@H]1COCCN1c1cc(C2([S@](C)(=N)=O)CC2)nc(-c2ccnc3[nH]ccc23)n1 [AZD6738] + Nc1ccn([C@@H]2O[C@H](CO)[C@@H](O)C2(F)F)c(=O)n1 [Gemcitabine] (first compound max 10 µM, 7x7, partner max 0.3 µM)	0.0282	-0.0094	0.0615	0.186	0.104	0.0762	0.0098	0.0524		0.743	0.991		
Cc1nc(-c2cn3c(n2)-c2ccc(-c4cnn(C(C)(C)C(N)=O)c4)cc2OCC3)n(C(C)C)n1 [Taselisib] + O=C(Nc1ccc2[nH]nc(-c3ccncc3)c2c1)[C@@H]1CCN(CC(=O)N2CCN(c3ccc(-c4ncccn4)cc3)CC2)C1 [SCH772984] (first compound max 10 µM, 7x7, partner max 5 µM)	-0.0562	-0.002	0.0241	-0.0617	0.0028	0.0999	0.123	0.0043	0.705	0.846	0.945		
CS(=O)(=O)CCNCc1ccc(-c2ccc3ncnc(Nc4ccc(OCc5cccc(F)c5)c(Cl)c4)c3c2)o1 [Lapatinib] + Cn1cnc2c(F)c(Nc3ccc(Br)cc3Cl)c(C(=O)NOCCO)cc21 [Selumetinib] (first compound max 10 µM, 7x7, partner max 10 µM)	-0.0254	-0.0259	-0.06	-0.0268	0.0002	-0.049	-0.0169	0.034	0.343	0.655	0.677		
CCc1c2c(nc3ccc(O)cc13)-c1cc3c(c(=O)n1C2)COC(=O)[C@]3(O)CC [SN-38] + O=C(c1cc(Cc2n[nH]c(=O)c3ccccc23)ccc1F)N1CCN(C(=O)C2CC2)CC1 [Olaparib] (first compound max 0.3 µM, 7x7, partner max 10 µM)	0.113	-0.0291	0.109	-0.0114	0.0301	0.0501	0.0005	0.0009	1	0.637	1	0.0082	0.0232
CC1(C)CCC(CN2CCN(c3ccc(C(=O)NS(=O)(=O)c4ccc(NCC5CCOCC5)c([N+](=O)[O-])c4)c(Oc4cnc5[nH]ccc5c4)c3)CC2)=C(c2ccc(Cl)cc2)C1 [Venetoclax] + CS(=O)(=O)CCNCc1ccc(-c2ccc3ncnc(Nc4ccc(OCc5cccc(F)c5)c(Cl)c4)c3c2)o1 [Lapatinib] (first compound max 1 µM, 7x7, partner max 10 µM)	-0.0527	0.0195	-0.0231	-0.0178	-0.0595	-0.059	0.0168	-0.0308	0.207	0.308	0.392		
C[C@@H]1COCCN1c1cc(C2([S@](C)(=N)=O)CC2)nc(-c2ccnc3[nH]ccc23)n1 [AZD6738] + C1CC(C1)(C(=O)[O-])C(=O)[O-].N.N.[Pt+2] [Carboplatin] (first compound max 10 µM, 7x7, partner max 10 µM)	-0.063	-0.041	-0.0162	-0.0459	-0.0239	-0.0459	0.0045	-0.0375	0.781	0.75	0.759		
O=C(c1cc(Cc2n[nH]c(=O)c3ccccc23)ccc1F)N1CCN(C(=O)C2CC2)CC1 [Olaparib] + CN(CC[C@H](CSC1=CC=CC=C1)NC2=C(C=C(C=C2)S(=O)(=O)NC(=O)C3=CC=C(C=C3)N4CCC(CC4)[C@H](C5=CC=CC=C5C6=CC=C(C=C6)Cl)O)S(=O)(=O)C(F)(F)F)CCO [AZD4320] (first compound max 10 µM, 7x7, partner max 1 µM)	-0.0332	0.0141	-0.034	-0.0332	-0.0647	-0.0318	0.0432	-0.049	0.948	0.182	0.205		
Cc1c2c(nn1C)CSCc1cc(n(C)n1)CSc1cc(c3ccccc3c1)OCCCc1c(C(=O)O)n(C)c3c-2c(Cl)ccc13 [AZD5991] + CC(=O)O[C@H]1C(=O)[C@@]2(C)[C@H]([C@H](OC(=O)c3ccccc3)[C@]3(O)C[C@H](OC(=O)[C@H](O)[C@@H](NC(=O)c4ccccc4)c4ccccc4)C(C)=C1C3(C)C)[C@]1(OC(C)=O)CO[C@@H]1C[C@@H]2O [Paclitaxel] (first compound max 1 µM, 7x7, partner max 3 µM)	-0.0853	0.0039	0.039	-0.0447	-0.0691	0.0067	0.0119	-0.0892	0.95	0.707	0.66		
C[C@@H](Nc1cc(F)cc(F)c1)c1cc(C(=O)N(C)C)cc2c(=O)cc(N3CCOCC3)oc12 [AZD8186] + C1CN(CCC1(C(=O)N[C@@H](CCO)C2=CC=C(C=C2)Cl)N)C3=NC=NC4=C3C=CN4 [AZD5363] (first compound max 10 µM, 7x7, partner max 10 µM)	-0.0293	-0.0265	-0.0849	-0.0615	-0.0327	-0.0226	-0.0549	0.0539	0.253	0.432	0.364		
Cc1c2c(nn1C)CSCc1cc(n(C)n1)CSc1cc(c3ccccc3c1)OCCCc1c(C(=O)O)n(C)c3c-2c(Cl)ccc13 [AZD5991] + Nc1ccn([C@@H]2O[C@H](CO)[C@@H](O)C2(F)F)c(=O)n1 [Gemcitabine] (first compound max 1 µM, 7x7, partner max 0.3 µM)	0.0305	-0.0422	-0.0026	0.0625	-0.0176	-0.0223	0.0183	0.0006	0.893	0.422	0.924		
O=C(c1cc(Cc2n[nH]c(=O)c3ccccc23)ccc1F)N1CCN(C(=O)C2CC2)CC1 [Olaparib] + COc1nnc2ccc(N3CCC(c4ccc(OCCN5CCN(C)C(=O)[C@H]5C)cc4)CC3)nn12 [AZD5153] (first compound max 10 µM, 7x7, partner max 1 µM)	-0.0056	-0.0063	-0.002	-0.0516	-0.0084	-0.0771	-0.0066	-0.0322	0.578	0.449	0.742		
Cc1c2c(nn1C)CSCc1cc(n(C)n1)CSc1cc(c3ccccc3c1)OCCCc1c(C(=O)O)n(C)c3c-2c(Cl)ccc13 [AZD5991] + CS(=O)(=O)CCNCc1ccc(-c2ccc3ncnc(Nc4ccc(OCc5cccc(F)c5)c(Cl)c4)c3c2)o1 [Lapatinib] (first compound max 1 µM, 7x7, partner max 10 µM)	0.0088	-0.0014	0.0088	0.0355	-0.0106	-0.0208	-0.0003	-0.0463	0.388	0.334	0.485		
C[C@@H](Oc1cc(-c2cnn(C3CCNCC3)c2)cnc1N)c1c(Cl)ccc(F)c1Cl [Crizotinib] + Cn1cnc2c(F)c(Nc3ccc(Br)cc3Cl)c(C(=O)NOCCO)cc21 [Selumetinib] (first compound max 10 µM, 7x7, partner max 10 µM)	-0.0411	-0.0627	-0.0308	-0.0285	-0.0378	-0.0073	-0.0073	-0.0534	0.742	0.7	0.781		
